What all share (assay type): organism-based
The subject of data set [1] is Arabidopsis thaliana. In words: Phytotoxicity against Arabidopsis thaliana Col-4 leaves assessed as induction of chlorosis, shriveling or death of leaves […] by detached leaf assay. Conditions: in vivo.
Data set [2] can be described thus: Phytotoxicity against Arabidopsis thaliana Col-4 leaves assessed as induction of leaf death after 7 weeks post compound application by detached leaf assay. Conditions: Col-4, arabidopsis thaliana, read-out: LD50.
For data set [3], the system named is Arabidopsis thaliana. In words: Phytotoxicity against Arabidopsis thaliana Col-4 leaves assessed as induction of chlorosis at 100 uM […] by detached leaf assay. The conditions noted are these: in vivo, 1176 h.
For data set [4], the system named is Arabidopsis thaliana. In words: Phytotoxicity against Arabidopsis thaliana Col-4 leaves assessed as induction of leaf death at 50 uM […] by detached leaf assay. Conditions: in vivo.
The subject of data set [5] is Arabidopsis thaliana. In words: Phytotoxicity against Arabidopsis thaliana Col-4 leaves assessed as induction of leaf death at 10 uM […] by detached leaf assay. Conditions: in vivo.
Data set [6] has as its system Arabidopsis thaliana. The experiment in a line: Phytotoxicity against Arabidopsis thaliana Col-4 leaves assessed as induction of chlorosis at 50 uM […] by detached leaf assay. The conditions noted are these: in vivo, 1176 h.
In data set [7] the test system is Arabidopsis thaliana. In words: Phytotoxicity against Arabidopsis thaliana Col-4 leaves assessed as induction of chlorosis at 10 uM […] by detached leaf assay. The conditions noted are these: in vivo.
Data set [8] relates to Arabidopsis thaliana. In words: Phytotoxicity against Arabidopsis thaliana Col-4 leaves assessed as induction of leaf death at 100 uM […] by detached leaf assay. The conditions noted are these: in vivo.

Structures are written as SMILES. Bounds are passed on as bounds.

Turning to `CC(=O)O[C@@H]1C[C@@H](O)[C@H]2O[C@@H]3C=C(C)C(=O)[C@@H](O)[C@]3(CO)[C@]1(C)[C@@]21CO1` [4-ACETYLNIVALENOL], in the data set on Arabidopsis thaliana [1], the ED50 was determined as 16.1 µM.
The same measure, in the same setting: then `CC(=O)OC[C@]12CCC(C)=C[C@H]1O[C@@H]1[C@H](O)CC[C@@]2(C)[C@@]12CO2` [3-DEACETYLCALONECTRIN], with 7.6 µM.
`CC(=O)O[C@@H]1CC[C@]2(C)[C@@]3(C)CCC(C)=C[C@H]3O[C@H]1[C@]21CO1` [ISOTRICHODERMIN]: the ED50 in the data set on Arabidopsis thaliana [1] came to 8.6 µM. In addition, in data set [2], the LC50 at 1176 h amounted to 16.1 µM.
Regarding `CC1=C[C@H]2O[C@@H]3[C@H](O)[C@@H](O)[C@](C)([C@@]2(CO)[C@H](O)C1=O)[C@]31CO1` [NIVALENOL], the Activity with Arabidopsis thaliana [3] amounted to 10%. In addition, the ED50 in the data set with Arabidopsis thaliana [1] was more than 100 µM. In addition, the LC50 at 1176 h in data set [2] was more than 100 µM.
Consider `CC(=O)OC[C@]12[C@H](O)C(=O)C(C)=C[C@H]1O[C@@H]1[C@H](OC(C)=O)CC[C@@]2(C)[C@@]12CO2` [3,15-DIACETYLDEOXYNIVALENOL], for which the ED50 in the data set with Arabidopsis thaliana [1] is 10 µM. In data set [2], the LC50 at 1176 h worked out at 28.2 µM.
Consider `CC1=CC(O)[C@@](C)([C@@]2(C)C[C@@H](O)[C@@H](O)C23CO3)CC1` (stereo partly drawn) [ISOTRICHOTRIOL], for which the Activity with Arabidopsis thaliana [4], in the data set on Arabidopsis thaliana [5], with Arabidopsis thaliana [6], in the data set on Arabidopsis thaliana [7], in the data set on Arabidopsis thaliana [8] and with Arabidopsis thaliana [3] was 10% throughout. In the data set with Arabidopsis thaliana [1], the ED50 was more than 100 µM.
On to `CC1=C[C@H]2O[C@@H]3[C@H](O)C[C@@H](O)[C@](C)([C@@]2(CO)CC1)[C@@]31CO1` [SCIRPENTRIOL], for which the ED50 in the data set on Arabidopsis thaliana [1] was determined as 53.6 µM.
The same measure, in the same setting: under `CC(=O)OC[C@]12CCC(C)=C[C@H]1O[C@@H]1[C@H](OC(C)=O)C[C@@H](OC(C)=O)[C@@]2(C)[C@@]12CO2` [3,4,15-TRIACETOXYSCIRPENOL] stands 6.7 µM.
On to `CC(=O)OC[C@]12[C@H](O)C(=O)C(C)=C[C@H]1O[C@@H]1[C@H](O)C[C@@]2(C)[C@]12CO2` [15-ACETYLDEOXYNIVALENOL], for which the ED50 in the data set with Arabidopsis thaliana [1] was 1.3 µM. In addition, the LC50 at 1176 h in data set [2] worked out at 4 µM.
Regarding `C=C1CCC[C@]1(C)[C@]1(C)CC=C(C)CC1` [TRICHODIENE], the Activity in the data set with Arabidopsis thaliana [8] turned out to be 3%; with Arabidopsis thaliana [3] it was 10%. Besides, the ED50 in the data set on Arabidopsis thaliana [1] is more than 100 µM.
For `CC(=O)OC[C@]12[C@H](O)C(=O)C(C)=C[C@H]1O[C@@H]1[C@H](OC(C)=O)C[C@@H](O)[C@@]2(C)[C@@]12CO2` [3,15-DIACETYLNIVALENOL], in the data set on Arabidopsis thaliana [1], the ED50 is 2.2 µM. In data set [2], the LC50 at 1176 h was found to be 4.3 µM.
For the compound `CC1=C[C@H]2O[C@@H]3[C@H](O)CC[C@](C)([C@@]2(CO)CC1)[C@@]31CO1` [3,15-DIDEACETYLCALONECTRIN], in the data set with Arabidopsis thaliana [1], the ED50 amounted to 90.1 µM.
As to `CC(=O)O[C@@H]1CC[C@]2(C)[C@@]3(CO)CCC(C)=C[C@H]3O[C@H]1[C@]21CO1` [15-DEACETYLCALONECTRIN], the Activity with Arabidopsis thaliana [3] amounted to 50%. Further, the ED50 in the data set with Arabidopsis thaliana [1] is more than 100 µM.
Consider `CC1=C[C@H]2O[C@@H]3[C@H](O)C[C@](C)([C@@]2(CO)[C@H](O)C1=O)[C@]31CO1` [DEOXYNIVALENOL], for which the ED50 with Arabidopsis thaliana [1] turned out to be 3.8 µM. In addition, the LC50 at 1176 h in data set [2] came out at 23 µM.
For `CC(=O)O[C@@H]1C[C@]2(C)[C@@]3(CO)[C@H](O)C(=O)C(C)=C[C@H]3O[C@H]1[C@@]21CO1` [3-ACETYLDEOXYNIVALENOL] the same measures were 3.4 µM and 18.7 µM.
Turning to `CC1=C[C@H]2O[C@@H]3[C@H](O)CC[C@](C)([C@@]2(C)CC1)[C@@]31CO1` [ISOTRICHODERMOL], the ED50 in the data set with Arabidopsis thaliana [1] came to 3.5 µM.

Source of the values: ChEMBL document CHEMBL3046797, “Structure-activity relationships of trichothecene toxins in an Arabidopsis thaliana leaf assay” (J Agric Food Chem, 2007).
